Data from ChEMBL document CHEMBL1201862, “PubChem BioAssay data set” (2004).
The source made the active and inactive calls.

Tests used:
Cytochrome P450 2C19 = Cytochrome P450 2C19 (Homo sapiens, UniProt P33261); assay: Cytochrome panel assay with activity outcomes. Panel member name: p450-cyp2c19 Compounds with AC50 equal or less than 10 uM are considered active; format: functional
Cytochrome P450 1A2 = target: T1, Cytochrome P450 1A2 (Homo sapiens, UniProt P05177);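 note: PubChem cytochrome P450 panel assay, CYP1A2 panel member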
T1 sequence (P05177 whole entry): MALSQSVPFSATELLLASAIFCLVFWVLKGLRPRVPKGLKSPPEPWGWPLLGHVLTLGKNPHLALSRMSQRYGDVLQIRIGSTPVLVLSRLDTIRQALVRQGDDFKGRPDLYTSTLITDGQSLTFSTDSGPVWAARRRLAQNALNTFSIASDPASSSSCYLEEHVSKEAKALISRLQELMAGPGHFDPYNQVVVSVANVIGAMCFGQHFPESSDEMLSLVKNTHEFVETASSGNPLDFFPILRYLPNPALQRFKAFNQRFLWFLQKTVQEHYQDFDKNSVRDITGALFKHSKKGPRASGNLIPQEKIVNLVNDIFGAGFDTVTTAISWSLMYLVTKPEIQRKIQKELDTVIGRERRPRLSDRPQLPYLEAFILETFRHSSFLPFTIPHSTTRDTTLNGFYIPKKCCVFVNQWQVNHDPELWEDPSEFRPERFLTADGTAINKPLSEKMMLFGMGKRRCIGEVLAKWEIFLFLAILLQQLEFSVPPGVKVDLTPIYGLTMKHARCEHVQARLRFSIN

INS1 = assay: beta cell apoptosis inhibitors, cytokine rescue, dose response, luminescence, retest (AID 449756); format: functional, cell-based; conditions: Rattus norvegicus;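 note: cell death triggered by IL-1 beta plus TNF-alpha plus IFN-gamma mixture; protective hits raise ATP signal compared with cytokine alone wells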
Cytochrome P450 3A4 = Cytochrome P450 3A4 (Homo sapiens, UniProt P08684);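 note: CYP3A4 tested as one member of a cytochrome P450 panel screen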
Cytochrome P450 3A4, sequence (P08684 whole entry): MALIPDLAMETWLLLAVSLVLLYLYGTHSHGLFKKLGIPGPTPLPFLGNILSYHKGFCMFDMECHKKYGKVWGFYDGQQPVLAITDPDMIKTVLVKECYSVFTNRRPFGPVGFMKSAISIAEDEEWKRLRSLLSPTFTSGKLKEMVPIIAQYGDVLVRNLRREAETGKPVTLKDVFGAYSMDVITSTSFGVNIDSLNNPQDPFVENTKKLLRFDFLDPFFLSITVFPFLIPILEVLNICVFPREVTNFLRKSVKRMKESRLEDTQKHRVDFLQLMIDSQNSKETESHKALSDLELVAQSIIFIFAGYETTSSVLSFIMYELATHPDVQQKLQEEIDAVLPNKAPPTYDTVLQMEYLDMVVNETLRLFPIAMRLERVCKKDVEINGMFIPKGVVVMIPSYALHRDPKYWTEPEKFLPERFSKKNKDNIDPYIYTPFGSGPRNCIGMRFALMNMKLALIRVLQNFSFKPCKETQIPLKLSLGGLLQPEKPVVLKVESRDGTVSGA

Cytochrome P450 2C9 = Cytochrome P450 2C9 (Homo sapiens, UniProt P11712)
Cytochrome P450 2C9, sequence (P11712 whole entry): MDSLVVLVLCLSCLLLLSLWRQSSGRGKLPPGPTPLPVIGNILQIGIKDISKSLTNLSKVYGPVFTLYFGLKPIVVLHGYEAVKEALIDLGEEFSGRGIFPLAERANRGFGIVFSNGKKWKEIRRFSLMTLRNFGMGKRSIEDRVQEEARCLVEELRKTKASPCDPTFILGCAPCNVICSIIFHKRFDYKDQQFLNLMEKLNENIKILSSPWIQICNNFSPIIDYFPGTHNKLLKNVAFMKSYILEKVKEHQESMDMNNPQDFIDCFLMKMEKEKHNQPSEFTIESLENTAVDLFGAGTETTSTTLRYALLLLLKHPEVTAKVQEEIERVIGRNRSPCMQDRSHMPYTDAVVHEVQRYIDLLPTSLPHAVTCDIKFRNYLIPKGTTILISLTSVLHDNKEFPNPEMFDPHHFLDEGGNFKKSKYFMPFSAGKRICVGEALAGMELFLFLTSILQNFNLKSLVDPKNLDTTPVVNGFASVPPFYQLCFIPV

Cytochrome P450 2C19, sequence (P33261 whole entry): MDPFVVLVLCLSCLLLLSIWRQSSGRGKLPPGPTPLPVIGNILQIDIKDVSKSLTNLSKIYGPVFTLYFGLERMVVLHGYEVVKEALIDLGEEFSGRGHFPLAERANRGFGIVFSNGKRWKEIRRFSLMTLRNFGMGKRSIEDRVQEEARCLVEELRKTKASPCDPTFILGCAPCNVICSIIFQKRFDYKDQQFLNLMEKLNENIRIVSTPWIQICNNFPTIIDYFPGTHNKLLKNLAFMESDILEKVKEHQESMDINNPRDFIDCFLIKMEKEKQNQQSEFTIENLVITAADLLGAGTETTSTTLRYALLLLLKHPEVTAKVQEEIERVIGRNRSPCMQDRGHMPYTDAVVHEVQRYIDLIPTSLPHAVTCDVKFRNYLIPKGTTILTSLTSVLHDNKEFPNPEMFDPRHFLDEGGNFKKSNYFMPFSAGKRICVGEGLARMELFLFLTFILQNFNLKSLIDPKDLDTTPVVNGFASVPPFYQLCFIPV

| SMILES | AC50 (Cytochrome P450 1A2) | AC50 (Cytochrome P450 2C19; read-out: AC50) | further results |
| --- | --- | --- | --- |
| Cc1cccc(-c2c3c(=O)n(C)c(=O)n(C)c3cn2C2CCCCC2)c1 |  |  | AC50 (Cytochrome P450 2C19): inconclusive |
| O=S(=O)(c1ccccc1)N1CCC2(CCCN(c3ncccn3)C2)CC1 | 15.8 µM (inconclusive) |  |  |
| CC(C)C[C@H]1C(=O)N2CCC[C@@H]2[C@@]2(O)O[C@](NC(=O)[C@@H]3C=C4c5cccc6[nH]cc(c56)C[C@@H]4N(C)C3)(C(C)C)C(=O)N12 | 12.6 µM (inconclusive) |  |  |
| COc1ccc(Br)cc1CN(C)CC(=O)NCc1ccc(F)cc1 |  |  | AC50 (INS1): 114 µM (active) |
| Cc1ccc(CN(C(=O)c2cc3ccccc3oc2=O)C2CCS(=O)(=O)C2)cc1 (stereo not drawn) | 31.6 µM (inconclusive) |  | AC50 (Cytochrome P450 3A4): 4.47 µM (inconclusive) |
| O=C(Nc1ccc2ccccc2c1)c1onc2c1CCCC2 |  | 15.8 µM (inconclusive) |  |
| O=C1[C@@H]2[C@H]3[C@H](O)[C@H](O)C/C(=N/OC[C@@H](O)COCc4ccco4)[C@H]3CC[C@H]2C(=O)N1c1ccc(F)cc1F |  |  | AC50 (Cytochrome P450 3A4): 3.16 µM (inconclusive); AC50 (Cytochrome P450 2C19): inconclusive |
| CCCCN1C(=O)/C(=C\c2ccco2)C(=O)N(CCc2ccccc2)C1=O | 28.2 µM (inconclusive) |  | AC50 (Cytochrome P450 3A4): 12.6 µM (inconclusive) |
| C/C(Cl)=C/CSc1nnc2n(N)c(=O)c3ccccc3n12 |  | 25.1 µM (inconclusive) | AC50 (Cytochrome P450 2C9): 22.4 µM (inconclusive) |
| CCc1ccc(C(=O)N2CCC(c3nc4ccccc4s3)CC2)cc1 | 17.8 µM (inconclusive) |  | AC50 (Cytochrome P450 3A4): 39.8 µM (inconclusive) |
| O=C(NCCO)c1cc2c(s1)CCC2 | 14.1 µM (inconclusive) | 5.01 µM (inconclusive) | AC50 (Cytochrome P450 2C9): 12.6 µM (inconclusive) |
| C=C[C@H](CC(C)C)N(Cc1ccccc1)S(=O)(=O)N(Cc1ccc(OC)cc1)[C@H](C=C)CC(C)C |  |  | AC50 (INS1): 5.78 µM (active) |
| O=C(NCc1nc2ccccc2[nH]1)[C@H]1C[C@@H]1[C@H](NP(=O)(c1ccccc1)c1ccccc1)c1ccccc1 | 15.8 µM (inconclusive) | 39.8 µM (inconclusive) | AC50 (Cytochrome P450 3A4): 0.794 µM (inconclusive) |
| Cc1cc(=O)n2c3ccccc3n(CC(O)CN3CCCCC3)c2c1C#N (stereo not drawn) | 15.8 µM (inconclusive) |  |  |
| CCC1(O)c2ccccc2-c2ncccc21 (stereo not drawn) |  | 39.8 µM (inconclusive) |  |
| COc1cnc(-c2ccccn2)nc1Sc1c(Cl)cccc1Cl | 2.82 µM (inconclusive) | 8.91 µM (inconclusive) | AC50 (Cytochrome P450 2C9): 15.8 µM (inconclusive) |
| CCCCCCc1ccc(N2C[C@H](Cc3ccccc3)[C@@H](CC(=O)NCc3ccc(OC)cc3)C2=O)cc1 |  |  | AC50 (INS1): 7.78 µM (active) |
| O=C(Oc1ccccc1)N1CCC[C@@]2(CCN(C(c3ccccc3)c3ccccc3)C2)C1 | 25.1 µM (inconclusive) |  |  |
| Clc1ccc(-c2nnc(-c3ccc(Br)cc3)c(N3CCSCC3)n2)cc1 |  | 11.2 µM (inconclusive) | AC50 (Cytochrome P450 2C9): 10 µM (inconclusive) |
| Cn1cccc1C(=O)N1CCC2(CCN(Cc3ccccc3)CC2)CC1 |  | 39.8 µM (inconclusive) |  |
| Cc1cccc(CNc2ccc(S(=O)(=O)N3CCCCC3)cc2)c1 |  |  | AC50 (INS1): 27.2 µM (active) |
| O=[N+]([O-])c1ccc(N2CCN(CCOc3nonc3-c3ccccc3)CC2)c(Cl)c1 |  |  | AC50 (Cytochrome P450 3A4): 14.1 µM (inconclusive); AC50 (INS1): 4.8 µM (active) |
| C[C@H]1C2=C3C(CC[C@H]4C(OCc5ccc(F)cc5C(F)(F)F)OC[C@](C)([C@@H]34)N(C(=O)OC(C)(C)C)C2)C2COC(=O)OCC21 (stereo partly drawn) | 6.31 µM (inconclusive) |  |  |
| Cc1cc(C)nc(NN2C(=O)/C(=C/c3ccccc3)SC2=S)n1 |  |  | AC50 (Cytochrome P450 2C19): inconclusive |
| N#Cc1ccc(-c2csc(NNC(=O)c3ccccc3)n2)cc1 |  |  | AC50 (INS1): > 260 µM (inactive) |
| Cc1noc(C)c1C(=O)N1CCC[C@@]2(CCN(Cc3cc(C(F)(F)F)cc(C(F)(F)F)c3)C2)C1 |  |  | AC50 (Cytochrome P450 3A4): 7.94 µM (inconclusive); AC50 (Cytochrome P450 2C19): inconclusive |
| CCOC(=O)c1cc(NC(=O)c2ccc(C)cc2)c(=O)oc1-c1ccccc1 |  | 2.82 µM (inconclusive) | AC50 (Cytochrome P450 3A4): 28.2 µM (inconclusive) |
| COC(=O)[C@@]1(Cc2ccc(F)cc2)[C@H]2c3cc(C(=O)N4CCCC4)n(CCc4ccc(OC)c(Br)c4)c3C[C@H]2CN1C(=O)c1ccccc1 | 15.8 µM (inconclusive) |  |  |

| SMILES | AC50 (Cytochrome P450 1A2) | AC50 (Cytochrome P450 2C19; read-out: AC50) | further results |
| --- | --- | --- | --- |
| NCCNC(=S)S |  | 3.98 µM (inconclusive) | AC50 (Cytochrome P450 2C9): 6.31 µM (inconclusive) |
| COc1ccc(-[n+]2c(-c3ccc(Cl)cc3)cn3c2CCCCC3)cc1 |  |  | AC50 (INS1): 1.44 µM (active) |
| COc1ccc(Nc2cc(=O)n(C3CCCCC3)c(=O)[nH]2)c(OC)c1 | 31.6 µM (inconclusive) |  | AC50 (Cytochrome P450 2C9): 25.1 µM (inconclusive) |
| CN(C)C(=O)c1ccc(-c2ccc3ncnc(NCCN4CCOCC4)c3c2)cc1 | 25.1 µM (inconclusive) |  | AC50 (Cytochrome P450 3A4): 15.8 µM (inconclusive) |
| CC(C)(CS)C(=O)N1CCC[C@H]1C(=O)O |  | 15.8 µM (inconclusive) |  |
| CNCCC=C1c2ccccc2C=Cc2ccccc21 | 6.31 µM (inconclusive) |  | AC50 (Cytochrome P450 3A4): 12.6 µM (inconclusive) |
| COc1ccc(Oc2ncc3nc(-c4ccc(Cl)cc4)c(=O)n(C[C@H]4CCCO4)c3n2)cc1 |  | 25.1 µM (inconclusive) |  |
| COc1cc2c(C(=O)NCc3ccc(C)o3)cn(CC(C)C)c(=O)c2cc1OC | 1.58 µM (inconclusive) |  | AC50 (Cytochrome P450 2C9): 10 µM (inconclusive) |
| COC(=O)[C@@]1(Cc2ccc(OC)cc2)[C@H]2c3cc(C(=O)N(C)C)n(Cc4ccc(C(F)(F)F)nc4)c3C[C@H]2CN1C(=O)c1ccccc1 |  | 39.8 µM (inconclusive) | AC50 (Cytochrome P450 2C9): 39.8 µM (inconclusive) |
| CN1C(=O)C(CC(=O)Nc2ccc(F)cc2)N(CCCc2ccccc2)C1=S (stereo not drawn) | 25.1 µM (inconclusive) | 1.78 µM (inconclusive) | AC50 (Cytochrome P450 3A4): 22.4 µM (inconclusive); AC50 (Cytochrome P450 2C9): 2.82 µM (inconclusive) |
| COc1cccc(Nc2ncc3nc(CCc4ccccc4)c(=O)n(Cc4cccs4)c3n2)c1 | 3.16 µM (inconclusive) |  | AC50 (Cytochrome P450 3A4): 6.31 µM (inconclusive) |
| Clc1ccc(C(c2ccc(Cl)cc2)[n+]2ccn(C[C@@H](OCc3ccc(Cl)cc3Cl)c3ccc(Cl)cc3Cl)c2)cc1 |  | 25.1 µM (inconclusive) |  |
| Cc1ccc(-n2ncc(N(C)C)c(Cl)c2=O)cc1 | 14.1 µM (inconclusive) |  | AC50 (Cytochrome P450 3A4): 28.2 µM (inconclusive) |
| Cc1cccc(CS(=O)(=O)Cc2ccc(C(=O)NCc3ccco3)o2)c1 | 5.01 µM (inconclusive) | 3.55 µM (inconclusive) | AC50 (Cytochrome P450 3A4): 39.8 µM (inconclusive); AC50 (Cytochrome P450 2C9): 7.08 µM (inconclusive) |
| Cc1ccc2[nH]c3nc(CCCn4ccnc4-c4ccccc4)nnc3c2c1 |  | 2.51 µM (inconclusive) | AC50 (Cytochrome P450 3A4): 3.16 µM (inconclusive) |
| COC(=O)c1ccc(NC(C)=O)o1 | 22.4 µM (inconclusive) | 39.8 µM (inconclusive) |  |
| Cc1cccc2c(SCC(=O)NCC3CCCO3)nc(-c3ccc(F)cc3)nc12 (stereo not drawn) | 0.447 µM (inconclusive) |  |  |
| COCCCn1nnnc1SCC(=O)N1CCCC1 |  | 25.1 µM (inconclusive) | AC50 (Cytochrome P450 2C9): 0.0126 µM (inconclusive) |
| Cc1nnc2ccccc2c1O | 0.398 µM (inconclusive) |  |  |
| COCCCNC(=S)N/N=C/c1cccc(OC)c1O |  |  | AC50 (INS1): 2.44 µM (active) |
| CO/C(O)=C1\C(C)=NC(C)=C([N+](=O)[O-])[C@H]1c1ccccc1C(F)(F)F | 31.6 µM (inconclusive) |  |  |
| Cc1nnc(S)n1/N=C/c1ccccc1OCc1ccc(Cl)cc1 |  | 11.2 µM (inconclusive) |  |
| C/C(=N/NC(=O)CN(c1ccccc1)S(=O)(=O)c1ccccc1)c1ccccc1O |  |  | AC50 (INS1): 2.01 µM (active) |
| CC(C)(C)NC[C@@H](O)COc1ccccc1C1CCCC1 | 10 µM (inconclusive) |  | AC50 (Cytochrome P450 2C9): 12.6 µM (inconclusive) |
| COc1ccc(C(Cl)=C(c2ccc(OC)cc2)c2ccc(OC)cc2)cc1 [CHLOROTRIANISENE] |  | 0.1 µM (inconclusive) |  |
| CCOc1ccc(Cc2nccc3cc(OCC)c(OCC)cc23)cc1OCC [ETHAVERINE] | 10 µM (inconclusive) |  |  |
| CN1CCN2c3ncccc3Cc3ccccc3C2C1 (stereo not drawn) [MIRTAZAPINE] | 20 µM (inconclusive) |  |  |
